{"source": "patent US8741854B2", "about": "“Compositions and methods for feeding poultry” (Bioenergy, Inc., priority 2009, dated 2014)", "tested_on": "male chicks of a commercial breed, \"Cobb 500\"", "assay": "D-ribose supplementation of broiler chicks raised on a challenged rapid growth regimen", "type": "in vivo, chicken (broiler chicks)", "conditions": "D-ribose in drinking water, about 200 mg/kg body weight/day"}
{"smiles": "O=C[C@H](O)[C@H](O)[C@H](O)CO", "note": "[D-ribose]", "values": [{"measurement": "observed cardiomyopathic incidences", "setting": "days 0 to 43, challenged environment, approximately 5200 feet elevation, control 27.6%", "value": 15.1, "unit": "%"}, {"measurement": "average weight and feed conversion versus control", "setting": "birds weighed days 35 and 43, FIG. 1", "value": "slightly better in the control group, but the differences were not statistically significant"}]}
